Experimental findings from patent publication US10820591B2, “Substituted sulfonyl amides for controlling animal pests” (Bayer Aktiengesellschaft, priority 2016, dated 2020) are described below.

One assay relates to Meloidogyne incognita. The assay is described as follows: Meloidogyne incognita test (sand, lettuce, gall formation). The assay is classed as in vivo. The note with it: Meloidogyne incognita, 336 h, 4 ppm, after 14 days; read-out: nematicidal efficacy (formation of galls). The gist of the method: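 Gall counts on lettuce roots were scored after 14 days in sand inoculated with root-knot nematode eggs/larvae plus compound diluted in water. Values run from 0% (galls as in untreated plants) to 100% (gall-free).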
As to `CCOc1ccc(Cl)c(S(=O)(=O)NC(=O)c2cn(-c3c(F)cccc3F)cn2)c1` [I-356], the pest or weed control at 4 ppm worked out at 90%.

Regarding `CC(C)Oc1ccc(Cl)c(S(=O)(=O)NC(=O)c2cn(-c3c(F)cccc3F)cn2)c1` [I-357], the pest or weed control at 4 ppm was 90%.

The same assay, now with this note: Meloidogyne incognita, 336 h, 20 ppm, after 14 days; read-out: nematicidal efficacy (formation of galls).
`COc1ccc(Br)c(S(=O)(=O)NC(=O)c2cn(-c3cc(F)cc(Cl)c3)cn2)c1` [I-339]: the pest or weed control at 20 ppm was determined as 100%.

For the compound `CCOc1ccc(Cl)c(S(=O)(=O)NC(=O)c2cn(-c3cc(F)cc(Cl)c3)cn2)c1` [I-340], the pest or weed control at 20 ppm amounted to 100%.

As to `CC(C)Oc1ccc(Cl)c(S(=O)(=O)NC(=O)c2cn(-c3cc(F)cc(Cl)c3)cn2)c1` [I-341], the pest or weed control at 20 ppm stood at 100%.

Regarding `Cc1ccc(C)c(S(=O)(=O)NC(=O)c2cn(-c3cc(F)cc(Cl)c3)cn2)c1` [I-342], the pest or weed control at 20 ppm worked out at 90%.

As to `O=C(NS(=O)(=O)c1cc(Cn2cccn2)ccc1Cl)c1cn(-c2cc(F)cc(Cl)c2)cn1` [I-343], the pest or weed control at 20 ppm came to 90%.

For `CC(C)Oc1ccc(Cl)c(S(=O)(=O)NC(=O)c2cn(-c3cc(Cl)cc(C(F)(F)F)c3)cn2)c1` [I-344], the pest or weed control at 20 ppm came to 90%.

On to `Cc1ccc(C)c(S(=O)(=O)NC(=O)c2cn(-c3cc(Cl)cc(C(F)(F)F)c3)cn2)c1` [I-345], for which the pest or weed control at 20 ppm was 100%.

Take `COc1ccc(F)c(S(=O)(=O)NC(=O)c2cn(-c3cc(Cl)cc(Cl)c3)cn2)c1` [I-347]: the pest or weed control at 20 ppm came to 100%.

For `COc1ccc(Br)c(S(=O)(=O)NC(=O)c2cn(-c3cc(Cl)cc(Cl)c3)cn2)c1` [I-348], the pest or weed control at 20 ppm worked out at 100%.

For the compound `CCOc1ccc(Cl)c(S(=O)(=O)NC(=O)c2cn(-c3cc(Cl)cc(Cl)c3)cn2)c1` [I-349], the pest or weed control at 20 ppm came to 100%.

`CC(C)Oc1ccc(Cl)c(S(=O)(=O)NC(=O)c2cn(-c3cc(Cl)cc(Cl)c3)cn2)c1` [I-350]: the pest or weed control at 20 ppm turned out to be 100%.

In the case of `Cc1ccc(C)c(S(=O)(=O)NC(=O)c2cn(-c3cc(Cl)cc(Cl)c3)cn2)c1` [I-351], the pest or weed control at 20 ppm came out at 100%.

For `COc1ccc(F)c(S(=O)(=O)NC(=O)c2cn(-c3cc(F)cc(C(F)(F)F)c3)cn2)c1` [I-352], the pest or weed control at 20 ppm amounted to 100%.

`COc1ccc(Br)c(S(=O)(=O)NC(=O)c2cn(-c3cc(F)cc(C(F)(F)F)c3)cn2)c1` [I-353]: the pest or weed control at 20 ppm turned out to be 100%.

With `CC(C)Oc1ccc(Cl)c(S(=O)(=O)NC(=O)c2cn(-c3cc(F)cc(C(F)(F)F)c3)cn2)c1` [I-354], the pest or weed control at 20 ppm came out at 100%.

As for `Cc1ccc(C)c(S(=O)(=O)NC(=O)c2cn(-c3cc(F)cc(C(F)(F)F)c3)cn2)c1` [I-355], the pest or weed control at 20 ppm came to 100%.

As to `Cc1ccc(C)c(S(=O)(=O)NC(=O)c2cn(-c3c(F)cccc3F)cn2)c1` [I-358], the pest or weed control at 20 ppm was found to be 100%.

For the compound `COc1ccc(Cl)c(S(=O)(=O)NC(=O)c2cn(-c3c(F)cccc3F)cn2)c1` [I-359], the pest or weed control at 20 ppm worked out at 90%.

For the compound `COc1ccc(F)c(S(=O)(=O)NC(=O)c2cn(-c3c(F)cccc3F)cn2)c1` [I-360], the pest or weed control at 20 ppm came out at 90%.

For `COc1ccc(Br)c(S(=O)(=O)NC(=O)c2cn(-c3c(F)cccc3F)cn2)c1` [I-361], the pest or weed control at 20 ppm is 90%.

Consider `Cc1nc(C(=O)NS(=O)(=O)c2c(Cl)cccc2Cl)cn1-c1c(F)cccc1F` [I-362], for which the pest or weed control at 20 ppm came out at 90%.

On to `COc1ccc(Cl)c(S(=O)(=O)NC(=O)c2cn(-c3c(F)cccc3F)c(C)n2)c1` [I-363], for which the pest or weed control at 20 ppm turned out to be 90%.

As for `CCOc1ccc(Cl)c(S(=O)(=O)NC(=O)c2cn(-c3c(F)cccc3F)c(C)n2)c1` [I-364], the pest or weed control at 20 ppm was determined as 90%.

For the compound `Cc1nc(C(=O)NS(=O)(=O)c2cc(Cl)ccc2Cl)cn1-c1c(F)cccc1F` [I-365], the pest or weed control at 20 ppm was 100%.

For the compound `Cc1nc(C(=O)NS(=O)(=O)c2cc(OC(C)C)ccc2Cl)cn1-c1cc(Cl)cc(Cl)c1` [I-366], the pest or weed control at 20 ppm was found to be 100%.

Take `COc1ccc(F)c(S(=O)(=O)NC(=O)c2cn(-c3cc(Cl)cc(Cl)c3)c(C)n2)c1` [I-367]: the pest or weed control at 20 ppm came to 100%.

As for `COc1ccc(Br)c(S(=O)(=O)NC(=O)c2cn(-c3cc(Cl)cc(Cl)c3)c(C)n2)c1` [I-368], the pest or weed control at 20 ppm is 90%.

Regarding `COc1ccc(F)c(S(=O)(=O)NC(=O)c2cn(-c3cc(F)cc(Cl)c3)c(C)n2)c1` [I-369], the pest or weed control at 20 ppm came to 100%.

Turning to `COc1ccc(Br)c(S(=O)(=O)NC(=O)c2cn(-c3cc(F)cc(Cl)c3)c(C)n2)c1` [I-370], the pest or weed control at 20 ppm came to 70%.

`COc1ccc(F)c(S(=O)(=O)NC(=O)c2cn(-c3cc(F)cc(F)c3)c(C)n2)c1` [I-371]: the pest or weed control at 20 ppm came out at 90%.

With `CC(=O)c1ccc(Cl)c(S(=O)(=O)NC(=O)c2cn(-c3cc(Cl)cc(Cl)c3)c(C)n2)c1` [I-372], the pest or weed control at 20 ppm is 100%.

Regarding `CSc1cccc(Cl)c1S(=O)(=O)NC(=O)c1cn(-c2cc(Cl)cc(Cl)c2)c(C)n1` [I-374], the pest or weed control at 20 ppm was found to be 100%.

Take `CCSc1cccc(Cl)c1S(=O)(=O)NC(=O)c1cn(-c2cc(Cl)cc(Cl)c2)c(C)n1` [I-375]: the pest or weed control at 20 ppm turned out to be 100%.

As to `Cc1nc(C(=O)NS(=O)(=O)c2c(Cl)cccc2SC(C)C)cn1-c1cc(Cl)cc(Cl)c1` [I-376], the pest or weed control at 20 ppm was 90%.

As to `Cc1nc(C(=O)NS(=O)(=O)c2c(F)cccc2NC(C)C)cn1-c1cc(Cl)cc(Cl)c1` [I-377], the pest or weed control at 20 ppm is 90%.

As for `Cc1nc(C(=O)NS(=O)(=O)c2c(F)cccc2Cl)cn1-c1cc(Cl)cc(Cl)c1` [I-378], the pest or weed control at 20 ppm worked out at 100%.

Take `Cc1nc(C(=O)NS(=O)(=O)c2c(F)cccc2NC2CC2)cn1-c1cc(Cl)cc(Cl)c1` [I-379]: the pest or weed control at 20 ppm is 100%.

Turning to `Cc1nc(C(=O)NS(=O)(=O)c2c(F)cccc2NC2CC2)cn1-c1cc(F)cc(Cl)c1` [I-380], the pest or weed control at 20 ppm worked out at 100%.

Turning to `Cc1nc(C(=O)NS(=O)(=O)c2c(F)cccc2NC(C)C)cn1-c1cc(F)cc(Cl)c1` [I-381], the pest or weed control at 20 ppm was 100%.

With `CSc1cccc(Cl)c1S(=O)(=O)NC(=O)c1cn(-c2cc(F)cc(Cl)c2)c(C)n1` [I-382], the pest or weed control at 20 ppm was 100%.

Turning to `CCSc1cccc(Cl)c1S(=O)(=O)NC(=O)c1cn(-c2cc(F)cc(Cl)c2)c(C)n1` [I-383], the pest or weed control at 20 ppm was determined as 100%.

As for `Cc1nc(C(=O)NS(=O)(=O)c2c(Cl)cccc2SC(C)C)cn1-c1cc(F)cc(Cl)c1` [I-384], the pest or weed control at 20 ppm was determined as 100%.

With `CSc1cccc(Cl)c1S(=O)(=O)NC(=O)c1cn(-c2cc(F)cc(F)c2)c(C)n1` [I-386], the pest or weed control at 20 ppm is 100%.

In the case of `Cc1nc(C(=O)NS(=O)(=O)c2c(Cl)cccc2SC(C)C)cn1-c1cc(F)cc(F)c1` [I-388], the pest or weed control at 20 ppm amounted to 100%.

With `Cc1nc(C(=O)NS(=O)(=O)c2c(F)cccc2NC2CC2)cn1-c1cc(F)cc(F)c1` [I-389], the pest or weed control at 20 ppm was 100%.

As to `CSc1cccc(Cl)c1S(=O)(=O)NC(=O)c1cn(-c2cc(Cl)cc(Cl)c2)cn1` [I-390], the pest or weed control at 20 ppm amounted to 100%.

As to `O=C(NS(=O)(=O)c1c(F)cccc1NC1CC1)c1cn(-c2cc(Cl)cc(Cl)c2)cn1` [I-393], the pest or weed control at 20 ppm turned out to be 100%.

Regarding `CCc1nc(C(=O)NS(=O)(=O)c2cc(OC)ccc2Cl)cn1-c1cc(F)cc(F)c1` [I-394], the pest or weed control at 20 ppm came to 100%.

In the case of `COc1ccc(Cl)c(S(=O)(=O)NC(=O)c2cn(-c3cc(F)cc(F)c3)c(C(C)C)n2)c1` [I-395], the pest or weed control at 20 ppm is 90%.

With `Cc1nc(C(=O)NS(=O)(=O)c2c(F)cccc2Cl)cn1-c1cc(F)cc(Cl)c1` [I-396], the pest or weed control at 20 ppm was found to be 90%.

Turning to `Cc1nc(C(=O)NS(=O)(=O)c2c(F)cccc2Cl)cn1-c1cc(F)cc(F)c1` [I-397], the pest or weed control at 20 ppm was found to be 70%.

In the case of `CC(C)Sc1cccc(Cl)c1S(=O)(=O)NC(=O)c1cn(-c2cc(Cl)cc(Cl)c2)cn1` [I-398], the pest or weed control at 20 ppm came out at 90%.

In the case of `Cc1nc(C(=O)NS(=O)(=O)c2c(F)cccc2Cl)cn1-c1cc(Cl)cc(C(F)(F)F)c1` [I-399], the pest or weed control at 20 ppm is 90%.

In the case of `Cc1nc(C(=O)NS(=O)(=O)c2c(F)cccc2Cl)cn1-c1cc(F)cc(C(F)(F)F)c1` [I-400], the pest or weed control at 20 ppm is 90%.

Take `CCc1nc(C(=O)NS(=O)(=O)c2cc(OC)ccc2Cl)cn1-c1cc(Cl)cc(Cl)c1` [I-402]: the pest or weed control at 20 ppm turned out to be 90%.

In the case of `COc1ccc(Cl)c(S(=O)(=O)NC(=O)c2cn(-c3cc(Cl)cc(Cl)c3)c(C(C)C)n2)c1` [I-403], the pest or weed control at 20 ppm turned out to be 90%.

For `CCc1nc(C(=O)NS(=O)(=O)c2cc(OC)ccc2Cl)cn1-c1cc(F)cc(C(F)(F)F)c1` [I-404], the pest or weed control at 20 ppm was found to be 90%.

On to `COc1ccc(Cl)c(S(=O)(=O)NC(=O)c2cn(-c3cc(F)cc(C(F)(F)F)c3)c(C(C)C)n2)c1` [I-405], for which the pest or weed control at 20 ppm turned out to be 100%.

Take `CCc1nc(C(=O)NS(=O)(=O)c2cc(OC)ccc2Cl)cn1-c1cc(F)cc(Cl)c1` [I-406]: the pest or weed control at 20 ppm came out at 100%.

Regarding `CCc1nc(C(=O)NS(=O)(=O)c2cc(OC)ccc2Cl)cn1-c1cc(Cl)cc(C(F)(F)F)c1` [I-407], the pest or weed control at 20 ppm was found to be 100%.

For `COc1ccc(Cl)c(S(=O)(=O)NC(=O)c2cn(-c3cc(F)cc(Cl)c3)c(C(C)C)n2)c1` [I-408], the pest or weed control at 20 ppm was found to be 100%.

`Cc1nc(C(=O)NS(=O)(=O)C(C)C)cn1-c1cc(Cl)cc(Cl)c1` [I-409]: the pest or weed control at 20 ppm was 100%.

Turning to `COc1ccc(S(=O)(=O)NC(=O)c2cn(-c3cc(F)cc(F)c3)c(C)n2)cc1` [I-410], the pest or weed control at 20 ppm was determined as 100%.

As for `COc1ccc(S(=O)(=O)NC(=O)c2cn(-c3cc(Cl)cc(Cl)c3)c(C)n2)cc1` [I-411], the pest or weed control at 20 ppm stood at 100%.

On to `COc1ccc(Cl)c(S(=O)(=O)NC(=O)c2nc(C)n(-c3cc(Cl)cc(Cl)c3)c2F)c1` [I-413], for which the pest or weed control at 20 ppm turned out to be 100%.

Take `O=C(NS(=O)(=O)c1ccccc1)c1ncn(-c2ccc(Cl)cc2)c1Cl` [I-414]: the pest or weed control at 20 ppm turned out to be 100%.
